The METLIN SMRT retention time set (Domingo-Almenara et al. 2019)

Test: gradient 5% acetonitrile 3 min, to 50% in 2 min, to 85% in 15 min, held 3 min, 100 µL/min
Settings: column: Zorbax Extend-C18 2.1 x 50 mm; eluents: water / acetonitrile, 0.1% formic acid
In short: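 The mobile phases were water and acetonitrile, each with 0.1% formic acid, pumped at 100 μL/min through a Zorbax Extend-C18 column (2.1 × 50 mm, 1.8 μm). Pure standards were injected as mixtures of ~100 molecules and detected by a quadrupole time-of-flight mass spectrometer in positive and negative ionization mode. Retention time came from computationally picked adduct peaks, each inspected by hand.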

| Structure (SMILES) | RP-LC retention time [s] |
| --- | --- |
| COCc1nc(CCNC(=O)C2CCCO2)no1 (centres undefined) | 593 |
| O=C1COc2ccccc2N1Cc1nc(-c2ccc(F)c(Br)c2)no1 | 1120 |
| COc1ccc(-c2noc(C3CC(=O)N(c4ccc(Cl)cc4)C3)n2)c(OC)c1 (centres undefined) | 928 |
| CCn1cc(S(=O)(=O)N2[C@H]3CC[C@@H]2c2cnc(-c4ccccc4)nc2C3)cn1 | 868 |
| CCOc1c(C)cc(S(=O)(=O)NCC2(O)CCOCC2)cc1C | 690 |
| O=C(COc1coc(CN2CCc3ccccc32)cc1=O)NCc1ccc2c(c1)OCO2 | 781 |
| O=C(c1nc2ccccn2c1-c1ccsc1)N1CCCC1 | 622 |
| COc1ccc(CCNC(=O)CN2C(=O)c3cccc4cccc(c34)C2=O)cc1OC | 725 |
| CCCc1noc(-c2ccc3nnc(CC(=O)Nc4ccc(C)cc4C)n3c2)n1 | 926 |
| O=C(Nc1ccc(Cl)cc1)N1CCC(N2CCN(Cc3ccccc3)C(=O)C2=O)CC1 | 764 |
| O=C(c1ccc2nc[nH]c2c1)N1CCCN(c2cc(-c3ccc(Cl)cc3)[nH]n2)CC1 | 620 |
| Cc1[nH]c2ccccc2c1C(=O)C(=O)NC1CCCCC1 | 798 |
| Cc1sc(NC(=O)C(F)(F)F)nc1-c1ccc2c(c1)NC(=O)CO2 | 763 |
| O=c1c2cc(-c3ccc(F)cc3)nn2ccn1Cc1noc(CN2CCCCC2)n1 | 656 |
| Cc1cc(N2CCN(c3ccccn3)CC2)n2nc(-c3ccccc3)c(C)c2n1 | 614 |
| Cc1ccc(-c2nc(Nc3ccc(Br)cc3)sc2CC(=O)O)c(C)c1 | 1090 |
| CCc1cc(C(=O)Nc2cc(OC)ccc2OC)nc2cc(-c3ccco3)nn12 | 1260 |
| COc1cccc(-c2nc(C3CCN(C(=O)c4n[nH]c5c4CCCC5)CC3)no2)c1 | 847 |
| CCN1C(=O)CCc2cc(NS(=O)(=O)c3ccc4c(c3)OCCO4)ccc21 | 794 |

| Structure (SMILES) | RP-LC retention time [s] |
| --- | --- |
| CCNC(=O)c1ccc(-n2c(C)ccc2C)nc1 | 566 |
| Cc1ccc2ncn(C3CCN(S(=O)(=O)c4ccc(C)c(F)c4)CC3)c(=O)c2c1 | 968 |
| Cc1ccc(CNC(=O)C2(C)Cn3nc(C(=O)NCc4ccc(F)cc4)cc3C(=O)N2C)cc1 (centres undefined) | 783 |
| COc1cccc(-c2ccc(=O)n(Cc3nc(-c4ccccc4Br)no3)n2)c1 | 997 |
| COC(=O)c1c(C)[nH]c(C(=O)N2CCC(CC(=O)N3CCN(c4ccccn4)CC3)CC2)c1C | 606 |
| CN(C)c1ccc(-c2nc3cnccn3c2Nc2cccc(Cl)c2)cc1 | 879 |
| O=C(CN1c2ccc(F)cc2-c2ccccc2S1(=O)=O)N1CCN(Cc2ccccc2)CC1 | 711 |
| O=c1ccc(-c2ccc(F)cc2)nn1CCc1nc(-c2cccc(Br)c2)no1 | 1100 |
| Cc1ccc(-c2noc(-c3cccc(S(=O)(=O)Nc4cccnc4)c3)n2)cc1 | 941 |
| CCOC(=O)Nc1nc(CC(=O)NCCc2c[nH]c3ccccc23)cs1 | 680 |
| CCCN1C(=O)c2c(C(=O)NCCc3ccccc3)ncn2CC1(C)C(=O)NCCC(C)C (centres undefined) | 891 |
| O=C1C(Nc2ccccc2)=CC(=O)c2ncccc21 | 734 |
| CCCCNC(=O)c1ccc(-c2ccc3c(c2)CCN3C(C)=O)cc1 | 832 |
| O=C1CCCN1Cc1noc(-c2ccccc2Cl)n1 | 770 |
| Cc1cc(C)n(-c2ccnc(NCc3ccc(Br)cc3)n2)n1 | 946 |
| CCc1ccc(-c2nc(C3CC(=O)N(c4ccc(OC)cc4)C3)no2)cc1 (centres undefined) | 1090 |
| CC(C)n1cc(C2=CCN(S(=O)(=O)c3ccccc3)CC2)c2cccnc21 | 702 |
| CN(C)C(=O)c1csc(S(=O)(=O)N2CCC(C(=O)Nc3ccccc3F)CC2)c1 | 770 |
| CC(C)(C)OC(=O)NC1[C@H]2CNC[C@@H]12 (some centres undefined) | 609 |

Second part, the molecule after the results:

| RP-LC retention time [s] | Structure (SMILES) |
| --- | --- |
| 722 | COc1cccc(C(=O)N2CCN(c3cc(-c4cccs4)[nH]n3)CC2)c1OC |
| 736 | CCCn1cc(CCNC(=O)Nc2cc(C)cc(C)c2)c2cccnc21 |
| 961 | Cn1c(SCC(=O)Nc2nc(-c3ccccc3)cs2)nnc1-c1cc2ccccc2o1 |
| 1220 | Cc1cccc(-c2nc(-c3cccc(-c4ccnn4C)c3)no2)c1 |
| 1080 | Cc1cc2nn(CC(=O)Nc3ccc(F)cc3F)c(=O)n2c(Nc2ccc(C)c(F)c2)n1 |
| 1240 | c1ccc(C2(c3nc(-c4ccc(-n5cccn5)nc4)no3)CC2)cc1 |
| 645 | CC(=O)N1c2ccc(S(=O)(=O)N3CCCCC3)cc2CC1C(=O)N1CCN(c2ccccn2)CC1 (centres undefined) |
| 1240 | O=C(Nc1ccc(F)cc1)c1c(O)c2cccnc2n(-c2ccccc2)c1=O |
| 809 | COc1ccc(-c2noc(C3CCCN3C(=O)c3ccco3)n2)cc1 (centres undefined) |
| 877 | COc1cc([N+](=O)[O-])cc2sc(NC(=O)c3cc(=O)c4ccccc4o3)nc12 |
| 986 | O=C(NCc1ccc(Cl)cc1)c1ccc(Oc2nccnc2N2CCSCC2)cc1 |
| 891 | Cc1ccc(N2CCC(NC(=O)c3cccc(F)c3)C2=O)cc1C (centres undefined) |
| 922 | Cc1cc(C)cc(NC(=O)N2CCCC2c2nc(-c3ccccc3)no2)c1 (centres undefined) |
| 912 | CC(=O)N1c2ccc(S(=O)(=O)N3CCCCCC3)cc2CC1C(=O)NCc1ccccc1 (centres undefined) |
| 800 | O=S(=O)(Cc1ccc(Cl)cc1)Nc1cccn2ncnc12 |
| 740 | O=C(Cn1nc(C2CC2)cc1C(=O)N1CCCC1)Nc1ccccc1 |
| 704 | CCCCNC(=O)C1(c2ccc(NC(C)=O)cc2)CCC1 |
| 817 | O=C(NCc1cnoc1-c1ccc(F)cc1)c1c(F)cccc1F |
| 889 | Cc1c(C(=O)N2CCCC2)cc(-c2ccc(F)cc2)n1C |
| 596 | COc1ccc(C2(C(=O)N3CCCC(CN4CCOCC4)CC3)CC2)cc1 (centres undefined) |
| 868 | Cc1ccc(-c2cc(C(F)(F)F)on2)cc1S(=O)(=O)N1CCN(c2ccccn2)CC1 |
| 759 | O=C(NC1CCCCCC1)c1nc(N2CCCC2)c2ccccc2n1 |
| 816 | COc1ccc(-c2nnc(-c3cccc(S(=O)(=O)N(C)C)c3)o2)cc1OC |
| 925 | COCCn1cc(C(=O)NC2CCCCC2)c2nn(-c3ccccc3)c(=O)c-2c1 |
| 897 | O=C(Nc1ccc(F)cc1)N1CCC(CCNC(=O)C2(c3ccccc3)CC2)CC1 |
| 966 | Cc1nc(-c2ccc(N3CCN(C(=O)c4nn(C)c5ccccc45)CC3)nc2)sc1C |

| RP-LC retention time [s] | Structure (SMILES) |
| --- | --- |
| 604 | COc1cc(CNC(=O)c2cn3cc(C)ccc3n2)cc(OC)c1 |
| 1170 | COC(=O)c1ccc(Cn2nc(C3CC3)c3cnn(-c4cccc(Cl)c4)c3c2=O)cc1 |
| 662 | COc1ccc(N2CCN(C(=O)C3CC(=O)N(c4n[nH]c5cccc(F)c45)C3)CC2)cc1 (centres undefined) |
| 610 | Cc1ccc(-c2nc3cnccn3c2NCCC(=O)O)cc1 |
| 578 | CCC(=O)N1CCc2cc(N3CC(C(=O)NCc4ccncc4)CC3=O)ccc21 (centres undefined) |
| 702 | Cc1ccc(CNC(=O)C2(C)Oc3cccnc3NC2=O)cc1 (centres undefined) |
| 723 | O=C(NCCC1=CCCCC1)C1CCCN(C(=O)c2cc(-c3ccccn3)n[nH]2)C1 (centres undefined) |
| 763 | CCOc1cccc2sc(N(Cc3ccccn3)C(=O)c3nn(C)cc3C)nc12 |
| 762 | COc1cc(NC(=O)C2CCN(S(=O)(=O)c3ccc4c(c3)CCCC(=O)N4)CC2)cc(OC)c1 |
| 659 | Cc1ccc(/C=C/c2nc(-c3ccc4c(c3)oc(=O)n4C(C)C)no2)o1 |
| 574 | O=C(NCc1ccccc1F)c1ccc2c(c1)ncn2CCN1CCCC1 |
| 722 | COc1ccc(C)cc1NC(=O)Nc1c(-c2ccc(C)cc2)nc2ccccn12 |
| 827 | CCCCC(=O)Nc1ccc(OCc2cc(C(=O)NC(C)C)no2)cc1 |
| 1010 | Cc1c(C(=O)N2CCCC2)cnn1-c1ccc(-c2nc(C(C)(C)C)no2)cn1 |
| 903 | CCN(CC)S(=O)(=O)c1cc(-c2nnc(-c3ccccc3OC)o2)ccc1OC |
| 718 | CN(Cc1ccccc1)C(=O)C1CCCN(c2nnc(N3CCCC3=O)s2)C1 (centres undefined) |
| 607 | CCC(=O)N1CCN(c2nc3c(s2)CC(C(=O)Nc2ccc(C)cc2Cl)CC3)CC1 (centres undefined) |
| 676 | CS(=O)(=O)Nc1cccc(NC(=O)Cc2csc(NC(=O)c3ccsc3)n2)c1 |
| 550 | O=C(NCCc1ccncc1)c1ccc2c(c1)ncn2-c1ccccc1 |
| 927 | CCOc1ccc(NS(=O)(=O)c2cc(C(=O)Nc3ccc(Br)cc3)n[nH]2)cc1 |
| 659 | Cc1noc(-c2cccnc2N2CCCN(Cc3cc(F)cc(F)c3)CC2)n1 |
| 1160 | Cn1nccc1-c1cccc(-c2noc(/C=C/c3cccs3)n2)c1 |
| 644 | CCNC(=O)c1nc(-c2ccnc(N3CCOCC3)c2)no1 |
| 725 | CCOC(=O)C1CCN(C(c2ccc(C)cc2)c2c(O)cc(C)n(CC)c2=O)CC1 (centres undefined) |
| 995 | CCn1cc(-c2nc(C)c(C(=O)NCc3ccccc3C)s2)c2cccnc21 |
